This is an account of results in ChEMBL document CHEMBL1201862, “PubChem BioAssay data set” (2004).

Each structure is given as a SMILES string. Activity calls are given as the source filed them.

Assay [1] addresses T1, Ubiquitin-conjugating enzyme E2 N (Homo sapiens, UniProt P61088).
T1 sequence (P61088 whole entry): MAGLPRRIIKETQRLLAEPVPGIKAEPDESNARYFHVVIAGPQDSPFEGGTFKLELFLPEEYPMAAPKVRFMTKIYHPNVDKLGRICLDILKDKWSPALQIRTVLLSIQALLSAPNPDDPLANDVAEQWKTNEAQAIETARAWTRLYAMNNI
The class given is functional.

Assay [2] in a line: ZM109 Env clade C HIV-1 fusion inhibitors, dose response, HeLa effector, CEM target cells, luciferase, cherry-pick (AID 652058). The format is functional, cell-based.
Assay [3] has as its target T2, Insulin-degrading enzyme (Homo sapiens, UniProt P14735).
T2 sequence (P14735 whole entry): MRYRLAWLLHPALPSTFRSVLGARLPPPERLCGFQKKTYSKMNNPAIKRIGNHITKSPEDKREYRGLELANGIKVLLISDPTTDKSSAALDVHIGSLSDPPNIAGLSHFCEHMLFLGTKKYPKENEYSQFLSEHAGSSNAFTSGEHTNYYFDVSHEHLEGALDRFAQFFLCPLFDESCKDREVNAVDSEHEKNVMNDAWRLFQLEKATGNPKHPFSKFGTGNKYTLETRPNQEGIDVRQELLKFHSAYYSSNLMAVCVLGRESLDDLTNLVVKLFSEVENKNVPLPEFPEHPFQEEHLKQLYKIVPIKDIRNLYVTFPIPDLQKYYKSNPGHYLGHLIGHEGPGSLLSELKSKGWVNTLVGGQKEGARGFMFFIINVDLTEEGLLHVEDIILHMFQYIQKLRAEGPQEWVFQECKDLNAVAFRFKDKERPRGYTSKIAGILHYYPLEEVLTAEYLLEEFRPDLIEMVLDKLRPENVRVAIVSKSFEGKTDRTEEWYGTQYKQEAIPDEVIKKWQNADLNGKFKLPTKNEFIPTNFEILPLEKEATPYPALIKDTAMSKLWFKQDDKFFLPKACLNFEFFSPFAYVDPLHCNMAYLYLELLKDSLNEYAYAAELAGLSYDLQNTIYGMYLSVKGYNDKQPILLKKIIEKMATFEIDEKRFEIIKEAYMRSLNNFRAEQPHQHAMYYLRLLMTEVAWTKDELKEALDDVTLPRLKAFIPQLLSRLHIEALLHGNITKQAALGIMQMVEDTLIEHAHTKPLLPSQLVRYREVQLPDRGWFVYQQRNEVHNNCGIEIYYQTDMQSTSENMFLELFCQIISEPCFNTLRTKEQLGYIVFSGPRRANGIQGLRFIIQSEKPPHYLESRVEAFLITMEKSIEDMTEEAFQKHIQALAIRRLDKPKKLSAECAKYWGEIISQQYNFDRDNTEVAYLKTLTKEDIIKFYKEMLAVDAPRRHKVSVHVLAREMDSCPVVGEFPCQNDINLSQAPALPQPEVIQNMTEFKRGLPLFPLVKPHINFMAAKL
Briefly: activators of endogenous IDE in HEK cells, dose response, cell-based, fluorescence polarization (AID 588439). The format is functional.

Assay [4] in a line: HEK293T cytotoxicity, dose response, cytotoxicity control for miR-122 modulator project, cell-based, inhibitor set, cherry-pick, set 2 (AID 720697). The class given is functional.
For assay [5], the system named is HEK293. Briefly: HEK cell cytotoxicity by LDH release, dose response, cytotoxicity control for IDE activator project, fluorescence, HEK cells (AID 588440).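 Also: cytotoxicity by LDH release measuring loss of membrane integrity.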 The format is functional, cell-based. As to conditions: Homo sapiens.
Assay [6] is described as follows: miR-122 activators in hepatoma reporter cells, dose response, cell-based, Huh7 psiCHECK-miR122, Renilla luciferase, cherry-picked (AID 651956).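 Also: huh7 hepatoma cells stably carrying a psiCHECK-2 miR-122 sensor plasmid; renilla luciferase signal reporting endogenous miR-122 activity after 48 h compound exposure.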 The class given is functional.
Assay [7] deals with HEK293. Kind of assay: optical interference in Abeta FP readout, dose response, artefact control for IDE activator project, biochemical, fluorescence polarization (AID 588442). The format is functional, cell-based. As to conditions: Homo sapiens.
Assay [8] can be described thus: inhibitors of HIV Env-driven cell fusion, dose response, cherry-pick (AID 652057). The class given is functional, cell-based.
The target of assay [9] is T2, Insulin-degrading enzyme. Briefly: activators of recombinant IDE enzyme, dose response, counter-screen for IDE activator project, biochemical, fluorescence polarization (AID 588681).
The target in assay [10] is T3, Apoptotic protease-activating factor 1 (Homo sapiens, UniProt O14727).
T3 sequence (O14727 whole entry): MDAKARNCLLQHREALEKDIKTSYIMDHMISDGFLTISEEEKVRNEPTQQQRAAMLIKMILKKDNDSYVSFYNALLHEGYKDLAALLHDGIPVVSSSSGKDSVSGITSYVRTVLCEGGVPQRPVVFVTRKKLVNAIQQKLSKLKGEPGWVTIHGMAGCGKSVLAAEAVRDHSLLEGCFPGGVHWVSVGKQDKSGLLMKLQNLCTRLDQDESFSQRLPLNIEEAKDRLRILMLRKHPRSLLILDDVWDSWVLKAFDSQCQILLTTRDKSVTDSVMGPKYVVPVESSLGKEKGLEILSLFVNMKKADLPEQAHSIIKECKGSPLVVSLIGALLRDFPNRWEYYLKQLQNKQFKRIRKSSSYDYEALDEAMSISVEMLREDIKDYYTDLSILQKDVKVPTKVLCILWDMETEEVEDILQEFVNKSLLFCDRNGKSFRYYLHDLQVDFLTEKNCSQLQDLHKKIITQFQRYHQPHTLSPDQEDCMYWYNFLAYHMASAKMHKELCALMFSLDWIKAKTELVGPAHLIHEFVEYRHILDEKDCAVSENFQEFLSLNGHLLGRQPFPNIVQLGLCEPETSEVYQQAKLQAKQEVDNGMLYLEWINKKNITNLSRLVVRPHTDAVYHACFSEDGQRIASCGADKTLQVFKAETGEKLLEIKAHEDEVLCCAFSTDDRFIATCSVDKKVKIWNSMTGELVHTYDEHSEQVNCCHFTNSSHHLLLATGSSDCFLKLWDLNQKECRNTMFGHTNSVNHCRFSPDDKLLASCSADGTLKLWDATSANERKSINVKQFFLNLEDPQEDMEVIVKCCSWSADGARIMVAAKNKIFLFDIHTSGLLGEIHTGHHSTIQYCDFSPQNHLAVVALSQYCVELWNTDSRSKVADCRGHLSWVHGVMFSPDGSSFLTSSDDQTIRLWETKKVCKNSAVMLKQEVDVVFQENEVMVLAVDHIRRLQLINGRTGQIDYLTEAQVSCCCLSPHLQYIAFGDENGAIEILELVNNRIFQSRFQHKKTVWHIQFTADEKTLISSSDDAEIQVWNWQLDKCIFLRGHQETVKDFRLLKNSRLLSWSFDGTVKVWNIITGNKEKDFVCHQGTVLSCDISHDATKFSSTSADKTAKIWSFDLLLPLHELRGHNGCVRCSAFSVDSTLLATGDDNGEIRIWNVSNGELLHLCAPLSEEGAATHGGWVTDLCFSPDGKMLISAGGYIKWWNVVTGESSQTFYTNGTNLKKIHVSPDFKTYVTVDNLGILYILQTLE
The format is functional.

The nature of assay [11]: HEK293T cytotoxicity, dose response, cytotoxicity control for miR-122 modulator project, cell-based, activator set, cherry-pick (AID 720690).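 Also: HEK293T human cells scored for general mammalian cytotoxicity.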 The class given is functional.
Assay [12] can be described thus: CEM21 lymphoblast cell cytotoxicity, dose response, cytotoxicity control for viral fusion inhibitor project, CellTiter-Glo luminescence, cherry-picked (AID 652042).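 Also: potency for signal decrease meaning cytotoxicity.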 The class given is functional, cell-based.
Assay [13] in a line: off-target signal loss in HeLa-CEM21 co-culture – HeLa F-luc CTL cells, cherry-picked, counter-screen for HIV-1 Env fusion inhibitor project, dose response (AID 652040).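 Also: potency for signal decrease marking cytotoxic or nonspecific inhibition.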 The class given is functional, cell-based.
Assay [14] can be described thus: inhibitors of clade B AD8 Env fusion, dose response, cell-based, cherry-pick (AID 652062).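 Also: luciferase signal from cell-cell fusion driven by HIV-1 clade B AD8 Env; potency is for inhibitors of fusion seen as a drop in luminescence.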 The class given is functional.

With `FC(F)(F)c1cc(CCN2CCNC[C@@H]2CC2CCCCC2)cc(C(F)(F)F)c1`, the IC50 is > 20 µM (inactive) in assay [1], 9.68 µM (active) in assay [5] and 62.5 µM (active) in [10]. The concentration at half-maximal activity (AC50) in assay [2] was 11.5 µM (active); in assay [4] it was 8.59 µM (active); in [6], 23.8 µM (active); in assay [8], 7.14 µM (active); in assay [11], 7.47 µM (active); in assay [12], 7.74 µM (active). In addition, the AC50 was 11.2 µM (active) in assay [13] and 17.6 µM (active) in assay [14]. In addition, the figures for the EC50 in assay [3], in [7] and in assay [9] were 17.6 µM (inactive), > 54.7 µM (inactive) and > 54.7 µM (inactive), respectively.
